Results: ChEMBL document CHEMBL3763146 (J Med Chem, 2016)

Columns and labels:
[1] = Induction of phospholidosis in human HepG2 cells incubated overnight by […] in presence of fluorescent labeled phospholipid probe NBD-PE; type: cell-based; details: read-out: A50
[2] = biological target: Sodium-dependent serotonin transporter (Homo sapiens, UniProt P31645); test: Inhibition of human SERT expressed in HEK293 cells preincubated for 30 mins followed by fluorescent substrate addition measured after 30 mins by plate reader analysis; type: cell-based
[3] = biological target: Sodium channel protein type 2 subunit alpha (Homo sapiens, UniProt Q99250); test: Inhibition of human Nav1.2 channel expressed in Xenopus oocytes by two-intracellular microelectrode voltage clamp method; type: cell-based
Sodium channel protein type 2 subunit alpha, sequence (Q99250 whole entry, looked up): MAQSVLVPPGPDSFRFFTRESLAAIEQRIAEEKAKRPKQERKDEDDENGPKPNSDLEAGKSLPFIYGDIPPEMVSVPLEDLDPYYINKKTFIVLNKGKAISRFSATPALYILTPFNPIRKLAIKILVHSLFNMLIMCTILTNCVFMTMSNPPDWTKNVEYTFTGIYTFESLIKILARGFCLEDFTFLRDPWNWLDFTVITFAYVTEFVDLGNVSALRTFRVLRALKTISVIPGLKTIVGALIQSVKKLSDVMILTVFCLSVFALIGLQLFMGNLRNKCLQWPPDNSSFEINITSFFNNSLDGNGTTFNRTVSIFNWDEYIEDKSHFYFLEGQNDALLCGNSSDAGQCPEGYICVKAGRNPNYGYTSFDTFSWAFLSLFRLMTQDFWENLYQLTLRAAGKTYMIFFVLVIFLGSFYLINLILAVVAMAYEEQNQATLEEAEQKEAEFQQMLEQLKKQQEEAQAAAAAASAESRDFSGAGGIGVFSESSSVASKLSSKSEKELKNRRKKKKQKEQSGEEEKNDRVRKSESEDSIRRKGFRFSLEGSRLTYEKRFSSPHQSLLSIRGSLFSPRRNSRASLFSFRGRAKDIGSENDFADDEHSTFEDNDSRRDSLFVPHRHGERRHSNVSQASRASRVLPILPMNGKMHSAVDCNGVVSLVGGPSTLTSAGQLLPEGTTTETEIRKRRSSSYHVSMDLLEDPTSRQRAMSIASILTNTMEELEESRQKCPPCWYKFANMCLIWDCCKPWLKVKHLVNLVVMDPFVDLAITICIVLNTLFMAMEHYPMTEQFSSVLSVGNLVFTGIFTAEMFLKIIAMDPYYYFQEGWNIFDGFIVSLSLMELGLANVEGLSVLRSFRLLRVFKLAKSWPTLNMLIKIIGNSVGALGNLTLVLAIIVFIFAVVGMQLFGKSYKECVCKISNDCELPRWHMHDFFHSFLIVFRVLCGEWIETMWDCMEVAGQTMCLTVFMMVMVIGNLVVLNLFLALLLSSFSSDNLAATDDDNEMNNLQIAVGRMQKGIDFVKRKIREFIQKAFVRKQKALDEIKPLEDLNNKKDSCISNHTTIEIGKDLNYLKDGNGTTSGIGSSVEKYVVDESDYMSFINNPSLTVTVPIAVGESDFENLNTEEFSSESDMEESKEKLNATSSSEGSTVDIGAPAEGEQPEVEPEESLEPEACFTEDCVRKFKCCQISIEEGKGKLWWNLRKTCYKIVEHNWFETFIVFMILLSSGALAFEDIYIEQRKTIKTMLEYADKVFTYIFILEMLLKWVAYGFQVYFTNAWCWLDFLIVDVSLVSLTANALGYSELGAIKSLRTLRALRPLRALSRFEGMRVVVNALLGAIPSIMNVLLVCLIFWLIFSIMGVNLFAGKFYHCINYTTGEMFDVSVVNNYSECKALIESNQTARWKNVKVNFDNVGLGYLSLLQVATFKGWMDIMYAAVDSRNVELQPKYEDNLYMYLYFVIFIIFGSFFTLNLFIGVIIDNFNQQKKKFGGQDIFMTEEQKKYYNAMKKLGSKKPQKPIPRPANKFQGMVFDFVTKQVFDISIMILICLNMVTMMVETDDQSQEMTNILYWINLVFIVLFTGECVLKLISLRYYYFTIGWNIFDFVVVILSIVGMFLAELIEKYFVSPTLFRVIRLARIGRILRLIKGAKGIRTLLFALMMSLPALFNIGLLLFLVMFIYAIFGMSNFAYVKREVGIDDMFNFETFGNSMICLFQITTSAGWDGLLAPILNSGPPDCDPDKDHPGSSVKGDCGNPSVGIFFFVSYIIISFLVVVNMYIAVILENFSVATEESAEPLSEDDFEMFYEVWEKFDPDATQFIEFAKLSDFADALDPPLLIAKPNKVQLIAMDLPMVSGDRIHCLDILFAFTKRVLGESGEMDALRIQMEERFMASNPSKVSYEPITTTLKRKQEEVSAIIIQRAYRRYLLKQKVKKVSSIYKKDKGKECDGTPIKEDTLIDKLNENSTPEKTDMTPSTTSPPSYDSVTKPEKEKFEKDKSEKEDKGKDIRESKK

[4] = biological target: Voltage-dependent L-type calcium channel subunit alpha-1C (Homo sapiens, UniProt Q13936); test: Displacement of [3H]-diltiazem from human Cav1.2 channel
Voltage-dependent L-type calcium channel subunit alpha-1C, sequence (Q13936 whole entry): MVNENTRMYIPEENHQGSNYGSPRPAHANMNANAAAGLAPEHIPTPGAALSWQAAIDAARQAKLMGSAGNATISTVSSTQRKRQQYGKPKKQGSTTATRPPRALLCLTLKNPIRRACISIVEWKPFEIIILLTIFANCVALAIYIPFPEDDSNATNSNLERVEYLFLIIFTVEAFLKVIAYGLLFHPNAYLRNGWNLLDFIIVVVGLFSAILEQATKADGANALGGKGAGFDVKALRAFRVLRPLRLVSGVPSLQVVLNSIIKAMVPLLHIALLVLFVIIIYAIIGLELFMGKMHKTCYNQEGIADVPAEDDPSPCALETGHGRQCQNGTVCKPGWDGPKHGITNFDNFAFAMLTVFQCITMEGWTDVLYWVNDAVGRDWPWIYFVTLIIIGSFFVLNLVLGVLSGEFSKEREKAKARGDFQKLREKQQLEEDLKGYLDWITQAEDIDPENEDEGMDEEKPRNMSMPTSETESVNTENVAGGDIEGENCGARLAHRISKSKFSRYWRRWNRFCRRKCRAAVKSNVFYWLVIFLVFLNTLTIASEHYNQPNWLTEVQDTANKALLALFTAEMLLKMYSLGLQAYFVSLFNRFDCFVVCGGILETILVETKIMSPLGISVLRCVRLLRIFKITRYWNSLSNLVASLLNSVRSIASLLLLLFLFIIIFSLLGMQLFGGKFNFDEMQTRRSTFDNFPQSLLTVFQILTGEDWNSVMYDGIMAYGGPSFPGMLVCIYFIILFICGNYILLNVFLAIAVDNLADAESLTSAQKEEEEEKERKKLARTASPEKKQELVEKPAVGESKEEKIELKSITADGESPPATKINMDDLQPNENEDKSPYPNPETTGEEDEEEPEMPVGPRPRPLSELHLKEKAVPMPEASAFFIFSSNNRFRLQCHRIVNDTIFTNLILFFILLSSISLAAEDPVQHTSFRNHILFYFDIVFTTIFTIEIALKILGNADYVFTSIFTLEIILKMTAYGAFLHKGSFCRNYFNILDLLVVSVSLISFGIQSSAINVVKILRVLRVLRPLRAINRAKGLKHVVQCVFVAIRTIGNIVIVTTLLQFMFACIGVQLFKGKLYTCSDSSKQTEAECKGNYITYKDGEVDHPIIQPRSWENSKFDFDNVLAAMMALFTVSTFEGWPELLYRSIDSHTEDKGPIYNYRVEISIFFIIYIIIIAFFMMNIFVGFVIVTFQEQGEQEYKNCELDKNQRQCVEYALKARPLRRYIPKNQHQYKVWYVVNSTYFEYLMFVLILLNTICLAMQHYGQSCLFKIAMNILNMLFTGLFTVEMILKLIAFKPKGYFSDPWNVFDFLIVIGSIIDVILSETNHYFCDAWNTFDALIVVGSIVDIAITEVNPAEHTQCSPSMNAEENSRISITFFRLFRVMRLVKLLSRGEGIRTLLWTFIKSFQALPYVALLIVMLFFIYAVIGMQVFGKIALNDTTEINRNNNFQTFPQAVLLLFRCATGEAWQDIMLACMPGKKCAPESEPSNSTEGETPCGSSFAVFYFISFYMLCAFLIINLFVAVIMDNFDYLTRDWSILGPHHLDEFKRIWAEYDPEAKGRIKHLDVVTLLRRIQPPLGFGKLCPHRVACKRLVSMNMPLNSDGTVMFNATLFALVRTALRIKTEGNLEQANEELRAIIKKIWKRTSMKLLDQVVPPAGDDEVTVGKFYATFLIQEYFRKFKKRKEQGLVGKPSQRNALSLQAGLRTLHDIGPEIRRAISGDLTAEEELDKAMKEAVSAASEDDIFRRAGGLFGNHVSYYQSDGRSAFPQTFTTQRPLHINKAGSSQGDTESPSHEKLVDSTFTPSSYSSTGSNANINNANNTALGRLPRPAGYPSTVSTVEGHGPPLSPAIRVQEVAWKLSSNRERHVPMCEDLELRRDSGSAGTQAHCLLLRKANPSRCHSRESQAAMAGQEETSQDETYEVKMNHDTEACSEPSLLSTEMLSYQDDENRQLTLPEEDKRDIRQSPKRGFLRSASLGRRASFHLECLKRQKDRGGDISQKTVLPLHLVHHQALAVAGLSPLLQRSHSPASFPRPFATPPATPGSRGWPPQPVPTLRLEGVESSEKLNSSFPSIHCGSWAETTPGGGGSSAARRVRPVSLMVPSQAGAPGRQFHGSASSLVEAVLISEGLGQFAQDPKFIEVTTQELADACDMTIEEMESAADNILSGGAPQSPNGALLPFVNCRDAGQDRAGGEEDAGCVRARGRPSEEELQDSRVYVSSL

[5] = biological target: T1, Beta-3 adrenergic receptor (Homo sapiens, UniProt P13945); test: Agonist activity at human beta3 adrenergic receptor expressed in CHO cells assessed as accumulation of cAMP after 30 mins by TR-FRET assay relative to (R)-(-)-isoproterenol; type: functional, cell-based
[6] = biological target: T1, Beta-3 adrenergic receptor; test: Agonist activity at human beta3 adrenergic receptor expressed in CHO cells assessed as accumulation of cAMP after 30 mins by TR-FRET assay; type: functional, cell-based
[7] = Plasma clearance in rat at 1 mg/kg, iv or 2 mg/kg, po; type: ADME, organism-based
[8] = Plasma clearance in dog at 0.5 mg/kg, iv or 2 mg/kg, po; type: ADME, organism-based, Canis lupus familiaris
[9] = Stability in human plasma assessed as parent compound remaining at 24 hrs by LC-MS analysis; type: ADME, cell-free; details: read-out: Stability
[10] = Half life in rat at 1 mg/kg, iv or 2 mg/kg, po; type: ADME, organism-based; details: in vivo
[11] = Half life in dog at 0.5 mg/kg, iv or 2 mg/kg, po; type: ADME, organism-based, Canis lupus familiaris; details: in vivo
Rattus norvegicus = test: Dose normalized total AUC in rat at 2 mg/kg, po; type: ADME, organism-based; details: in vivo
Canis familiaris = test: Dose normalized total AUC in dog at 2 mg/kg, po; type: ADME, organism-based, Canis lupus familiaris; details: in vivo
[12] = Oral bioavailability in rat at 2 mg/kg; type: ADME, organism-based; details: in vivo
[13] = Oral bioavailability in dog at 2 mg/kg; type: ADME, organism-based, Canis lupus familiaris; details: in vivo
[14] = Intrinsic clearance in rat liver microsomes; type: ADME; details: read-out: CLH
[15] = Intrinsic clearance in dog liver microsomes; type: ADME, Canis lupus familiaris; details: read-out: CLH
[16] = Intrinsic clearance in human liver microsomes; type: ADME; details: read-out: CLH
[17] = Intrinsic clearance in rhesus monkey liver microsomes; type: ADME, Macaca mulatta; details: read-out: CLH
[18] = Stability in rat plasma assessed as parent compound remaining at 24 hrs by LC-MS analysis; type: ADME, cell-free; details: read-out: Stability
[19] = Stability in dog plasma assessed as parent compound remaining at 24 hrs by LC-MS analysis; type: ADME, cell-free, Canis lupus familiaris; details: read-out: Stability
[20] = Stability in rhesus monkey plasma assessed as parent compound remaining at 24 hrs by LC-MS analysis; type: ADME, cell-free, Macaca mulatta; details: read-out: Stability
[21] = biological target: Sodium-dependent dopamine transporter (Homo sapiens, UniProt Q01959); test: Inhibition of human dopamine transporter
[22] = biological target: Beta-2 adrenergic receptor (Homo sapiens, UniProt P07550)
Beta-2 adrenergic receptor, sequence (P07550 whole entry): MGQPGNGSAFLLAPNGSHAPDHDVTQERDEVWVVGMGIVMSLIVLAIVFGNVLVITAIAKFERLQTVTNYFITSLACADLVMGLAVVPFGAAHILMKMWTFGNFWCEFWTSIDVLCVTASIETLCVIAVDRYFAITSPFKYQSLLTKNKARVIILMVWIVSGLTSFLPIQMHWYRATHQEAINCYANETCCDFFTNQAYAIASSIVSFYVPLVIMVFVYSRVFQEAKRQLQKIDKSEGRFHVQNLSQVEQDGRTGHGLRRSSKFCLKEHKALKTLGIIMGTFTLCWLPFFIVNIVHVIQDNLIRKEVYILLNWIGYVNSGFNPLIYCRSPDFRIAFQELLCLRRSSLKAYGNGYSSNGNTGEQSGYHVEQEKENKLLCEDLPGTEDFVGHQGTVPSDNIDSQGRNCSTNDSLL
Description: Displacement of [125]I-cyanopindolol from human recombinant beta2 adrenergic receptor after 1 hr by scintillation counting method

[23] = biological target: Beta-1 adrenergic receptor (Homo sapiens, UniProt P08588)
Beta-1 adrenergic receptor, sequence (P08588 whole entry): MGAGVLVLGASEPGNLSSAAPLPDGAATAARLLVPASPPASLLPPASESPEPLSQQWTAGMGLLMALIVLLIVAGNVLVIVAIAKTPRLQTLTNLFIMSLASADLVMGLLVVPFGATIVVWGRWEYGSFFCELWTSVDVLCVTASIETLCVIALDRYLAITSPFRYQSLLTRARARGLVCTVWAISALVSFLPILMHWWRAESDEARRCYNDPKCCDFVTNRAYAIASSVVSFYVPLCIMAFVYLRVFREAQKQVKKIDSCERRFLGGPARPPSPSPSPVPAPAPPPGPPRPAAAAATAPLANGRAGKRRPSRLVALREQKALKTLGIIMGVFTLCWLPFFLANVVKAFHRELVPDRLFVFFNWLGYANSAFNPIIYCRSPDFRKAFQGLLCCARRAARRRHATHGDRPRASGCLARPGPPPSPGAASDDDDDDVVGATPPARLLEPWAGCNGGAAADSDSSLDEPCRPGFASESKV
Description: Displacement of [125]I-cyanopindolol from recombinant human beta1 adrenergic receptor after 1 hr by scintillation counting method

In the case of `O=C(Nc1ccc(C[C@@H]2CC[C@H]([C@H](O)c3ccccc3)N2)cc1)[C@@H]1CCc2cccc(=O)n21`, the AC50 [1] is reported as 33 µM, the IC50 [2] is reported as 7.1 µM and the IC50 [3] is reported as > 30 µM. The IC50 [4] was > 30 µM, the max activation [5] was 94% and the EC50 [6] was 0.00062 µM. The clearance [7] was 4.62 L/h/kg, the clearance [8] was 1.56 L/h/kg and the remaining at 24 h [9] was 100%. It also gave a half-life [10] of 3 h, a half-life [11] of 6 h and an AUC/dose (Rattus norvegicus) of 110 nM·h/mg/kg. For the same molecule, the AUC/dose (Canis familiaris) was 1500 nM·h/mg/kg, the bioavailability [12] was 21% and the bioavailability [13] was 100%. It also gave a CLint scaled [14] of 1.74 L/h/kg, a CLint scaled [15] of 0.78 L/h/kg and a CLint scaled [16] of 1.14 L/h/kg. For the same molecule, the CLint scaled [17] was 8.22 L/h/kg, the remaining at 24 h [18] was 92% and the remaining at 24 h [19] was 92%. For the same molecule, the remaining at 24 h [20] was 72%, the IC50 [21] was 4.8 µM and the IC50 [22] was > 20 µM. The IC50 [23] was > 20 µM.
